Source: ChEMBL document CHEMBL5104169, “Design and synthesis of mogrol derivatives modified on a ring with anti-inflammatory and anti-proliferative activities” (Bioorg Med Chem Lett, 2022)
Calls of active or inactive are those of the source. The rule behind the calls is not given here.

What was measured:
RAW264.7 = test: Cytotoxicity against mouse RAW264.7 cells at 10 uM measured after 24 hrs by CCK-8 assay relative to control; format: toxicity, cell-based; details: raw264.7, 24 h
A549 = test: Antiproliferative activity against human A549 cells; format: functional, cell-based
NCI-H460 = test: Antiproliferative activity against human NCI-H460 cells; format: functional, cell-based
NCI-H1299 [1] = test: Antiproliferative activity against human NCI-H1299 cells; format: functional, cell-based
NCI-H1975 [2] = test: Antiproliferative activity against human NCI-H1975 cells; format: functional, cell-based
NCI-H1299 [3] = test: Induction of cell cycle arrest in human NCI-H1299 cells assessed as accumulation G1 phase at 2 uM incubated for 72 hrs (reference value: 40.25%); format: functional
NCI-H1299 [4] = test: Induction of cell cycle arrest in human NCI-H1299 cells assessed as accumulation G2 phase at 2 uM incubated for 72 hrs (reference value: 16.08%); format: functional
NCI-H1299 [5] = test: Induction of cell cycle arrest in human NCI-H1299 cells assessed as accumulation S phase at 2 uM incubated for 72 hrs (reference value: 43.67%); format: functional
NCI-H1299 [6] = test: Induction of cell cycle arrest in human NCI-H1299 cells assessed as accumulation G1 phase at 8 uM incubated for 72 hrs (reference value: 40.25%); format: functional
NCI-H1299 [7] = test: Induction of cell cycle arrest in human NCI-H1299 cells assessed as accumulation G2 phase at 8 uM incubated for 72 hrs (reference value: 16.08%); format: functional
NCI-H1299 [8] = test: Induction of cell cycle arrest in human NCI-H1299 cells assessed as accumulation S phase at 8 uM incubated for 72 hrs (reference value: 43.67%); format: functional
NCI-H1975 [9] = test: Induction of cell cycle arrest in human NCI-H1975 cells assessed as accumulation G1 phase at 2 uM incubated for 72 hrs (reference value: 66.36%); format: functional
NCI-H1975 [10] = test: Induction of cell cycle arrest in human NCI-H1975 cells assessed as accumulation G2 phase at 2 uM incubated for 72 hrs (reference value: 11.97%); format: functional
NCI-H1975 [11] = test: Induction of cell cycle arrest in human NCI-H1975 cells assessed as accumulation S phase at 2 uM incubated for 72 hrs (reference value: 22.67%); format: functional
NCI-H1975 [12] = test: Induction of cell cycle arrest in human NCI-H1975 cells assessed as accumulation G1 phase at 8 uM incubated for 72 hrs (reference value: 66.36%); format: functional
NCI-H1975 [13] = test: Induction of cell cycle arrest in human NCI-H1975 cells assessed as accumulation G2 phase at 8 uM incubated for 72 hrs (reference value: 11.97%); format: functional
NCI-H1975 [14] = test: Induction of cell cycle arrest in human NCI-H1975 cells assessed as accumulation S phase at 8 uM incubated for 72 hrs (reference value: 22.67%); format: functional
NCI-H1975 [15] = test: Antiproliferative activity against human NCI-H1975 cells assessed as decrease in p-p65 expression at 2 to 8 uM measured after 72 hrs by western blot analysis; format: functional, cell-based; details: dose 2-8 µM

With C[C@H](CC[C@@H](O)C(C)(C)O)[C@H]1CC[C@@]2(C)[C@@H]3CC=C4[C@@H](C/C(=C\c5ccncc5)C(=O)C4(C)C)[C@]3(C)C(=O)C[C@]12C the Activity (RAW264.7) was “Toxic”, the IC50 (A549) was 11.1 µM and the IC50 (NCI-H460) was 15.7 µM. For the same molecule, the IC50 (NCI-H1299 [1]) was 8.39 µM, the IC50 (NCI-H1975 [2]) was 7.24 µM and the Activity (NCI-H1299 [3]) was 42.49%. The Activity (NCI-H1299 [4]) was 17.4%, the Activity (NCI-H1299 [5]) was 40.12% and the Activity (NCI-H1299 [6]) was 50.5%. The Activity (NCI-H1299 [7]) was 16.38%, the Activity (NCI-H1299 [8]) was 33.12% and the Activity (NCI-H1975 [9]) was 66.51%. The Activity (NCI-H1975 [10]) was 12.84%, the Activity (NCI-H1975 [11]) was 20.66% and the Activity (NCI-H1975 [12]) was 83.96%. The Activity (NCI-H1975 [13]) was 6.38%, the Activity (NCI-H1975 [14]) was 9.67% and the Activity (NCI-H1975 [15]) was “Active”.
